The source of these data is patent US20210269434A1, “TRICYCLIC COMPOUNDS AS INHIBITORS OF KRAS” (Incyte Corporation, priority 2020, published 2021).

The target in assay [1] is KRAS G12C (Homo sapiens, UniProt P01116, G12C). Kind of assay: GDP-GTP exchange assay (KRAS_G12C exchange). The following applies: bodipy-GDP loaded KRAS G12C 2.5 nM, SOS1 150 nM, GppNHp; 2 hours pre-incubation, 2 hours reaction; read-out: G12C_exchange. It is filed as biochemical. The procedure: Example A. GDP-GTP Exchange Assay
KRAS G12C, sequence (P01116 1-188 isoform P01116-2 G12C): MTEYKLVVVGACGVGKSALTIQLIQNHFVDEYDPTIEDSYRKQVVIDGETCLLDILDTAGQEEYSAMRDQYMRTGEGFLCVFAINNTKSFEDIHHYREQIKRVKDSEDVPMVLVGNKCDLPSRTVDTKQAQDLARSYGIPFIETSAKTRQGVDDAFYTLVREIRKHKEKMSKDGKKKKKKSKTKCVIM
The inhibitor potency of the exemplified compounds was determined in a fluorescence based guanine nucleotide exchange assay, which measures the exchange of bodipy-GDP (fluorescently labeled GDP) for GppNHp (Non-hydrolyzable GTP analog) to generate the active state of KRAS in the presence of SOS1 (guanine nucleotide exchange factor). Inhibitors were serially diluted in DMSO and a volume of 0.1 μL was transferred to the wells of a black low volume 384-well plate. 5 μL/well volume of bodipy-loaded KRAS G12C diluted to 5 nM in assay buffer (25 mM Hepes pH 7.5, 50 mM NaCl, 10 mM MgCl2 and 0.01% Brij-35) was added to the plate and pre-incubated with inhibitor for 2 hours at ambient temperature. Appropriate controls (enzyme with no inhibitor or with a G12C inhibitor (AMG-510)) were included on the plate. The exchange was initiated by the addition of a 5 μL/well volume containing 1 mM GppNHp and 300 nM SOS1 in assay buffer. The 10 μL/well reaction concentration of the bodipy-loaded KRAS G12C, GppNHp, and SOS1 were 2.5 nM, 500 uM, and 150 nM, respectively. The reaction plates were incubated at ambient temperature for 2 hours, a time estimated for complete GDP-GTP exchange in the absence of inhibitor. For the KRAS G12D and G12V mutants, similar guanine nucleotide exchange assays were used with 2.5 nM as final concentration for the bodipy loaded KRAS proteins and with 4 hours and 3 hours incubation after adding GppNHp-SOS1 mixture for G12D and G12V respectively. A cyclic peptide described to selectively bind G12D mutant (Sakamoto et al., BBRC 484.3 (2017), 605-611) or internal compounds with confirmed binding were used as positive controls in the assay plates. Fluorescence intensities were measured on a PheraStar plate reader instrument (BMG Labtech) with excitation at 485 nm and emission at 520 nm.
Either GraphPad prism or XLfit was used to analyze the data. The IC50 values were derived by fitting the data to a four parameter logistic equation producing a sigmoidal dose-response curve with a variable Hill coefficient. Prism equation: Y=Bottom+(Top−Bottom)/(1+10^((Log lC50−X)*Hill slope)); XLfit equation: Y=(A+((B−A)/(1+((X/C)^D)))) where X is the logarithm of inhibitor concentration and Y is the response.

Assay [2] concerns MIA PaCa-2 (KRAS G12C) cells. Description: Cellular pERK HTRF assay (KRAS_G12C pERK). Format: cell-based, human. Conditions: Homo sapiens, MIA PaCa-2, 4 hours incubation, read-out: G12C_pERK. Here is the method:
Example C: Cellular pERK HTRF Assay
MIA PaCa-2 (KRAS G12C; ATCC® CRL-1420), A427 (KRAS G12D; ATCC® HTB53), HPAF-II (KRAS G12D; ATCC® CRL-1997) and NCI-H838 (KRAS WT; ATCC® CRL-5844) cells are purchased from ATCC and maintained in RPMI 1640 media supplemented with 10% FBS (Gibco/Life Technologies). The cells are plated at 5000 cells per well (8 uL) into Greiner 384-well low volume, flat-bottom, tissue culture treated white plates and incubated overnight at 37° C., 5% CO2. The next morning, test compound stock solutions are diluted in media at 3× the final concentration, and 4 uL are added to the cells. The plate is mixed by gentle rotation for 30 seconds (250 rpm) at room temperature. The cells are incubated with the KRAS G12C and G12D compounds for 4 hours or 2 hours respectively at 37° C., 5% CO2.
4 uL of 4× lysis buffer with blocking reagent (1:25) (Cisbio) are added to each well and plates are rotated gently (300 rpm) for 30 minutes at room temperature. 4 uL per well of Cisbio anti Phospho-ERK 1/2 d2 is mixed with anti Phospho-ERK 1/2 Cryptate (1:1) are added to each well, mixed by rotation and incubated overnight in the dark at room temperature. Plates are read on the Pherastar plate reader at 665 nm and 620 nm wavelengths. IC50 determination is performed by fitting the curve of inhibitor percent inhibition versus the log of the inhibitor concentration using the GraphPad Prism 7 software.

Take `C=CC(=O)N1CC[C@H](n2nnc3c(N4CC(N(C)C)C4)nc4c(F)c(-c5ccccc5C(F)(F)F)c(C)cc4c32)C[C@H]1CC#N` (single isomer, unassigned) [Example 165a]: the IC50 in assay [1] and in assay [2] was ≤ 0.1 µM in each case.
Regarding `Cc1cc2c(nc(-n3ccnc3C)c3nnn([C@H]4CCN(C(=O)/C=C/CN(C)C)[C@H](CC#N)C4)c32)c(F)c1-c1ccccc1C(F)(F)F` (single isomer, unassigned) [Example 167a], the IC50 in assay [1] and in assay [2] was ≤ 0.1 µM throughout.
`Cc1cc2c(nc(OC[C@@H]3CCCN3C)c3nnn([C@H]4CCN(C(=O)/C=C/C(F)F)[C@H](CC#N)C4)c32)c(F)c1-c1cccnc1C(F)(F)F` (single isomer, unassigned) [Example 168a]: the IC50 in assay [1] and in assay [2] was ≤ 0.1 µM each time.
`CC#CC(=O)N1CC[C@H](n2nnc3c(N4CC(N(C)C)C4)nc4c(F)c(-c5c(C)c(Cl)cc6[nH]ncc56)c(Cl)cc4c32)C[C@H]1CC#N` (single isomer, unassigned) [Example 178a]: the IC50 in assay [1] and in assay [2] was ≤ 0.1 µM in each case.
For the molecule `C=CC(=O)N1CC[C@H](n2nnc3c(N4CC(N(C)C)C4)nc4c(F)c(-c5c(C)c(Cl)cc6[nH]ncc56)c(Cl)cc4c32)C[C@H]1CC#N` (single isomer, unassigned) [Example 185a], the IC50 in assay [1] and in assay [2] was ≤ 0.1 µM each time.
For the molecule `COC/C=C/C(=O)N1CC[C@H](n2nnc3c(OC[C@@H]4CCCN4C)nc4c(F)c(-c5c(C)c(Cl)cc6[nH]ncc56)c(Cl)cc4c32)C[C@H]1CC#N` (single isomer, unassigned) [Example 191a], the IC50 in assay [1] and in assay [2] was ≤ 0.1 µM in each case.
For the molecule `C=CC(=O)N1CC[C@H](n2nnc3c(N4CC(C)(N(C)C)C4)nc4c(F)c(-c5c(C)c(Cl)cc6[nH]ncc56)c(C)cc4c32)C[C@H]1CC#N` (single isomer, unassigned) [Example 193a], the IC50 in assay [1] and in assay [2] was ≤ 0.1 µM in each case.
On to `CC#CC(=O)N1CC[C@H](n2nnc3c(N4CC(C)(N(C)C)C4)nc4c(F)c(-c5c(C)c(Cl)cc6[nH]ncc56)c(C)cc4c32)C[C@H]1CC#N` (single isomer, unassigned) [Example 194a], for which the IC50 in assay [1] and in assay [2] was ≤ 0.1 µM in each case.
As for `C=CC(=O)N1CC[C@H](n2nnc3c(N4CC(C)(N(C)C)C4)nc4c(F)c(-c5c(C)c(C)cc6[nH]ncc56)c(C)cc4c32)C[C@H]1CC#N` (single isomer, unassigned) [Example 198a], the IC50 in assay [1] and in assay [2] was ≤ 0.1 µM in each case.
With `C=CC(=O)N1CC[C@H](n2nnc3c(N4CC(C)(N(C)C)C4)nc4c(F)c(-c5c(C)ccc6[nH]ncc56)c(C)cc4c32)C[C@H]1CC#N` (single isomer, unassigned) [Example 200a], the IC50 in assay [1] and in assay [2] was ≤ 0.1 µM each time.
As to `CC#CC(=O)N1CC[C@H](n2nnc3c(OC[C@@H]4CCCN4C)nc4c(F)c(-c5cccnc5C(F)(F)F)c(C)cc4c32)C[C@H]1CC#N` (single isomer, unassigned) [Example 205a], the IC50 in assay [1] and in assay [2] was ≤ 0.1 µM throughout.
As for `C=CC(=O)N1CCC(n2cnc3c(N4CC(C)(N(C)C)C4)nc4c(F)c(-c5cccc6cccc(Cl)c56)c(Cl)cc4c32)C[C@H]1CC#N` (single isomer, unassigned) [Example 212a], the IC50 in assay [1] and in assay [2] was ≤ 0.1 µM throughout.
For `CC#CC(=O)N1CCC(n2cnc3c(N4CC(C)(N(C)C)C4)nc4c(F)c(-c5cccc6cccc(Cl)c56)c(Cl)cc4c32)C[C@H]1CC#N` (single isomer, unassigned) [Example 213b], the IC50 in assay [1] and in assay [2] was ≤ 0.1 µM each time.
As for `C=CC(=O)N1CCC(n2cnc3c(N4CC(N(C)CC)C4)nc4c(F)c(-c5cccc6cccc(Cl)c56)c(Cl)cc4c32)C[C@H]1CC#N` (single isomer, unassigned) [Example 214b], the IC50 in assay [1] and in assay [2] was ≤ 0.1 µM throughout.
In the case of `C=CC(=O)N1CCC(n2cnc3c(OC[C@@H]4CCCN4C)nc4c(F)c(-c5cccc6cccc(Cl)c56)c(Cl)cc4c32)C[C@H]1CC#N` (single isomer, unassigned) [Example 215b], the IC50 in assay [1] and in assay [2] was ≤ 0.1 µM in each case.
For `C=CC(=O)N1CCC(n2nnc3c(N4CC(C)(N(C)C)C4)nc4c(F)c(-c5cccc6cccc(Cl)c56)c(Cl)cc4c32)C[C@H]1CC#N` (single isomer, unassigned) [Example 216a], the IC50 in assay [1] and in assay [2] was ≤ 0.1 µM each time.
For the molecule `CC#CC(=O)N1CCC(n2nnc3c(N4CC(C)(N(C)C)C4)nc4c(F)c(-c5cccc6cccc(Cl)c56)c(Cl)cc4c32)C[C@H]1CC#N` (single isomer, unassigned) [Example 218a], the IC50 in assay [1] and in assay [2] was ≤ 0.1 µM each time.
Turning to `C=CC(=O)N1CCC(n2nnc3c(N4CC(N(C)CC)C4)nc4c(F)c(-c5cccc6cccc(Cl)c56)c(Cl)cc4c32)C[C@H]1CC#N` (single isomer, unassigned) [Example 219a], the IC50 in assay [1] and in assay [2] was ≤ 0.1 µM throughout.
In the case of `C=CC(=O)N1CCC(n2nnc3c(N4CC(C)(N(C)C)C4)nc4c(F)c(-c5cccc6cccc(C#N)c56)c(Cl)cc4c32)C[C@H]1CC#N` (single isomer, unassigned) [Example 220a], the IC50 in assay [1] and in assay [2] was ≤ 0.1 µM in each case.
In the case of `C=CC(=O)N1CCC(n2cnc3c(N4CC(C)(N(C)C)C4)nc4c(F)c(-c5cccc6cccc(Cl)c56)c(C)cc4c32)C[C@H]1CC#N` (single isomer, unassigned) [Example 221a], the IC50 in assay [1] and in assay [2] was ≤ 0.1 µM in each case.
As for `C=CC(=O)N1CCC(n2cnc3c(N4CC(N(C)CC)C4)nc4c(F)c(-c5cccc6cccc(Cl)c56)c(C)cc4c32)C[C@H]1CC#N` (single isomer, unassigned) [Example 223a], the IC50 in assay [1] and in assay [2] was ≤ 0.1 µM throughout.
For `CC#CC(=O)N1CCC(n2cnc3c(N4CC(N(C)CC)C4)nc4c(F)c(-c5cccc6cccc(Cl)c56)c(C)cc4c32)C[C@H]1CC#N` (single isomer, unassigned) [Example 224a], the IC50 in assay [1] and in assay [2] was ≤ 0.1 µM throughout.
For the molecule `CN(C)C/C=C/C(=O)N1CC[C@H](n2cnc3c(N4CC(N(C)C)C4)nc4c(F)c(-c5ccc(F)c6cccnc56)c(C(F)(F)F)cc4c32)C[C@H]1CC#N` (single isomer, unassigned) [Example 230a], the IC50 in assay [1] and in assay [2] was ≤ 0.1 µM throughout.
With `CC#CC(=O)N1CC[C@H](n2nnc3c(N4CC(N(C)C)C4)nc4c(F)c(-c5c(C)c(Cl)cc6[nH]ncc56)c(CCC#N)cc4c32)C[C@H]1CC#N` (single isomer, unassigned) [Example 231a], the IC50 in assay [1] and in assay [2] was ≤ 0.1 µM each time.
For `C=CC(=O)N1CC[C@H](n2nnc3c(N4CC(C)(N(C)C)C4)nc4c(F)c(-c5ccc(F)c6cccnc56)c(C(F)(F)F)cc4c32)C[C@H]1CC#N` (single isomer, unassigned) [Example 233a], the IC50 in assay [1] and in assay [2] was ≤ 0.1 µM throughout.
In the case of `C=CC(=O)N1CC[C@H](n2nnc3c(N4CC(C)(N(C)C)C4)nc4c(F)c(-c5cccc(C)c5Cl)c(C(F)(F)F)cc4c32)C[C@H]1CC#N` (single isomer, unassigned) [Example 235a], the IC50 in assay [1] and in assay [2] was ≤ 0.1 µM throughout.
